# Test results: a melting point compilation (Tetko et al.; mined from patent text by program, amines drawn as free bases though some values may be those of a salt)
row,melting point [°C],Structure (SMILES)
1,120 to 121,CCCc1c(OCc2cccc(OCc3ccc4ccccc4n3)c2)ccc2c(=O)cc(C(=O)OCC)oc12
2,143,CC(C)(C)[N+]([O-])=CCc1ccccc1
3,167 to 170,NS(=O)(=O)c1cc(C(=O)c2cc3ccccc3o2)ccc1Cl
4,137 to 139,N#CCCn1cc(C#N)c([N+](=O)[O-])n1
5,180,C[C@]12CCC3=C4CCC(=O)C=C4CC[C@H]3[C@@H]1CCC21OCCC1O (some centres not stated)
6,97 to 98,N#CC1c2ccccc2Oc2ccccc21
7,183 to 184,Cc1c(N)cccc1-c1ccnc(Nc2ccc(C(=O)N3CCOCC3)cc2)n1
8,> 320,O=C(CCCOc1ccc2nc3[nH]c(=O)[nH]c3cc2c1)NC1CCCC1
9,197,COc1cc(C)cc(-c2nn(CC#N)cc2-c2cc(NC[C@H](C)O)nc(Cl)n2)c1
10,187 to 188,COc1ccc(-c2cc(-c3ccccc3)[nH]c2C(=O)NCc2ccc(C(=O)NO)cc2)cc1
11,183 to 184,CS(=O)(=O)c1ccc(-c2cnn(CC(=O)c3csc4ccccc34)c(=O)c2-c2ccc(F)cc2)cc1
12,131 to 132,CCOC(=O)Cc1ccc(-c2nc(COc3ccc(COc4nn(-c5ccccc5)cc4/C=C/c4nc(N5CCCCC5)sc4C)cc3OC)c(C)o2)cc1
13,168,CCOC(=O)c1c(Cl)ccc(C(=O)O)c1Cl
14,211 to 212,O=C(Nc1ccc2nc(CN3CCOCC3)ccc2c1)c1ccc(-c2ccc(F)cc2)cc1
15,121 to 122,OC(COc1ccc(-c2ccc(Br)cc2)cc1)CN1CCCC1 (configuration not stated)
16,196,CN(O)C(=O)C=Cc1ccc(Cl)c(O)c1
17,132 to 133,NC(=O)[C@H]1CCC[C@H]1C(=O)O (relative stereo)
18,163 to 165,CCCc1nc2c(N)nc3ccccc3c2n1CCCC(=O)N(C)OC
19,184,Cc1ccc(S(=O)(=O)Nc2cc(C)cc([N+](=O)[O-])c2N)cc1
20,85 to 90,Cc1c(C(O)C2CCc3cc4ccccc4n3C2=O)ncn1C(c1ccccc1)(c1ccccc1)c1ccccc1 (configuration not stated)
21,109 to 110,Cc1nc(-c2ccccc2)c(CC(C)C(=O)O)o1 (configuration not stated)
22,185 to 189,Cc1ccc(N2CCN(c3c(C)c(O)c4c(c3C)CC(C)(C)O4)CC2)cc1
23,200,O=[N+]([O-])c1c(NCCO)cc(NCCO)cc1NCCO
24,196 to 197,O=C1NCC=NN1c1ccc(Cc2ccc(Cl)cc2)c(Cl)c1

row,melting point [°C],Structure (SMILES)
1,161 to 162,CSc1ccc(-c2ccc(S(=O)(=O)CC(CO)N(O)C=O)cc2)cc1 (configuration not stated)
2,61 to 64,CCOC(=O)c1cnc2ccc(OCC)nc2c1Cl
3,245 to 246,N#Cc1ccc(-c2ncccc2O)cc1
4,145 to 146,CCN(CC)CCNc1ccc(C=O)c2sc3ccc(Br)cc3c(=O)c12
5,65 to 70,NC1COc2ccccc2NC1=O (configuration not stated)
6,240 to 241,CC(C(=O)O)n1cc(-c2ccc(Oc3ccccc3)cc2)c2c(N)ncnc21 (configuration not stated)
7,72 to 73,CC(=O)OC1CC(C)(C)N(OC(C)=O)C(C)(C)C1
8,226 to 228,CCOC(=O)NN=Cc1nc(C(C)(C)C)[nH]c1C
9,219 to 221,CCOC(=O)c1nc2ccc(N)cc2c(O)c1C(=O)OCC
10,158,CCCCOC(=O)c1ccc2ccc(C(=O)O)nc2c1OC(=O)C(C)(C)C
11,156,COc1ccc(C(=O)N(C(=O)c2ccc(OC)cc2)c2nc3ccc(N(C)C)cc3c(NCc3ccccc3)c2C#N)cc1
12,215 to 216,CCOC(=O)c1cn2c(cc(Cl)c3ccc(OC)cc32)n1
13,196 to 198,O=C(CCc1ccccc1)NC(C(=O)Nc1n[nH]c(=S)s1)c1ccccc1 (configuration not stated)
14,32 to 34,COc1ccc2cccc(Cl)c2c1
15,162 to 164,O=c1ccccn1[C@@H]1c2cc(C(F)(F)C(F)(F)F)ccc2OC(CF)(CF)[C@H]1O (relative stereo)
16,72 to 73,O=C1N(c2cc(Cl)cc(Cl)c2)C(=O)C2(Cc3ccc(-c4ccc([N+](=O)[O-])cc4)cc3)CCCN12 (configuration not stated)
17,110,CNC(=O)c1ccc(N2CCC(OC3CCN(C4CCC4)CC3)CC2)cn1
18,107,O=Cc1cccc2nc(-c3ccccc3)oc12
19,170 to 171,COc1cc(OC)cc(C(=O)N2CCc3cc(O)ccc3C2)c1
20,126 to 127,COc1ccc(CCOc2cccc(-c3cccc(C(=O)NCCN4CCCC4)c3)n2)cc1OC
21,185 to 195,COc1cc(N2CCN(C)CC2)ccc1-c1nc2c(N[C@H]3[C@@H](C(N)=O)[C@@H]4C=C[C@H]3C4)ccnc2[nH]1
22,146 to 151,COCCC(=O)N(Cc1ccc(OC(F)(F)F)cc1)c1cc(Cl)cc(-c2nnn[nH]2)c1
23,97 to 98,Cc1c(C#N)ncn1-c1cccc(Oc2ccccc2)c1
24,120 to 121,COc1cc(COc2nn(-c3ccccc3)cc2/C=C/CO)ccc1OCc1nc(-c2ccco2)oc1C

row,melting point [°C],Structure (SMILES)
1,196,Cc1ccc(S(=O)(=O)N2CC3=C(C2)C(Cc2ccccc2)NCC3)cc1 (configuration not stated)
2,148 to 150,C=CCCOc1ccc(C[C@H](NC(=O)OC(C)(C)C)C(=O)O)cc1
3,150 to 152,NC(=O)N(O)CCNC(=O)Cc1cccc(Oc2ccccc2)c1
4,204 to 205,O=C(Nc1ccc(F)cn1)c1cc(-c2ccc(Cl)c(Cl)c2)nc2ccccc12
5,226,Cc1cc(-c2cc(C(F)F)n3ncc(C(=O)Nc4cccc(S(=O)(=O)N5CCCC5)c4)c3n2)ccc1C(F)(F)F
6,301 to 302,Nc1nc(NC(=O)c2cccnc2)nc(-c2ccc3ccccc3c2O)n1
7,189 to 190,COc1ccc(C(=O)c2ccc(OC)c([N+](=O)[O-])c2)cc1[N+](=O)[O-]
8,108 to 111,O=C(Nc1ccc(Oc2ccc(C(O)CCC(=O)N3CCOCC3)cc2)c(F)c1)c1ccc(Cl)c(Cl)c1 (configuration not stated)
9,166 to 168,Cc1nc2sc([N+](=O)[O-])cc2c(=O)n1-c1ccc([N+](=O)[O-])cc1Cl
10,135 to 137,Cc1[nH]c2ccccc2c1CCCN1CCC(C(=O)c2ccc(F)cc2)CC1
11,89 to 90,CN(C)C(=O)n1oc(CCl)cc1=O
12,172,Cn1cc(-c2ccccc2)c(=O)c(-c2ccc(Br)cc2)c1
13,137 to 139,CS(=O)c1ccc(S(=O)(=O)N2CCCC(c3ccccc3)=N2)cc1 (configuration not stated)
14,296 to 298,CC(C)c1ccc(-c2cnc(-c3cccc(C(=O)O)c3)[nH]2)cc1
15,199 to 200,Cc1ccccc1-c1c(NC(=O)Nc2ccc(F)cc2F)c(=O)oc2ccc(C(C)C)cc12
16,105 to 110,CCCCCCC(C(=O)O)N1NCc2cc(-c3ccccc3-c3nn[nH]n3)ccc21 (configuration not stated)
17,206 to 208,Cc1cn(C2OC(CO)C(O)C2O)c(=S)[nH]c1=O (configuration not stated)
18,91 to 93,C=CCn1cc(C(O)(c2ccc3c(cnn3-c3ccc(F)cc3)c2)C(F)(F)F)c2ccn(C)c(=O)c21 (configuration not stated)
19,252 to 253,CC(=O)n1cc(C2=C(c3cn(C)c4ccccc34)C(=O)NC2=O)c2ccccc21
20,191 to 192,O=C(CO[C@H]1CC[C@@H](CCNS(=O)(=O)c2ccc(Cl)cc2)CC1)Nc1nnn[nH]1
21,> 270,CC(=O)Nc1cc(NC(C)=C2C(=O)OC(=O)C(C(C)=O)=C2O)cc([N+](=O)[O-])c1
22,143,CCOC(=O)c1c(O)c2cccnc2n(Cc2ccccc2)c1=O
23,160 to 162,Cc1cccc(CC(NC(=O)C(c2ccccc2)c2ccccc2)C(=O)NC(C#N)COCc2cccc(C(=O)O)c2)c1 (configuration not stated)
24,139 to 140,CS(=O)(=O)c1ccc(-c2cc3cccccc-3c2-c2ccccc2)cc1

row,melting point [°C],Structure (SMILES)
1,154 to 155,Cc1c(CCC(=O)O)c2cc(Cl)ccc2n1Cc1ccc(Br)cc1
2,81 to 87,CN1CCN([C@H]2CC[C@@H](N)CC2)C1=O
3,83 to 89,C=C1CCC2C3CCC4=CC(=O)CCC4C3CCC12C (configuration not stated)
4,214 to 216,O=C(Nc1cccc2c(=O)cc(-c3nnn[nH]3)oc12)c1ccc2c(c1)CCC(COCc1ccccc1)O2 (configuration not stated)
5,126,CCN1CCN(C(=O)c2ccc(-c3cc(-c4n[nH]cc4-c4cccc(C)n4)ccn3)cc2)CC1
6,158 to 160,CP(C)(=O)CN1CCC(c2nn(-c3ccc(C(F)(F)F)cc3)c3ccccc23)CC1
7,118 to 122,COc1ccc2c(c1)c(CC(=O)OCC(=O)N(C)CCO[N+](=O)[O-])c(C)n2C(=O)c1ccc(Cl)cc1
8,54,NCCc1ncccc1C(N)=O
9,121 to 122,CCOC(=O)C1CCc2sc3ccc(C#N)cc3c2C1 (configuration not stated)
10,174 to 175,Oc1ccc2ccc(C(O)C(F)(F)F)cc2c1 (configuration not stated)
11,189 to 190,CC(=O)Nc1ccc(C#Cc2c(F)c(F)nc(F)c2F)cc1
12,58 to 61,Cc1cncc(CN2CCC(=C3c4ccc(Cl)cc4CCc4cccnc43)CC2)c1
13,204 to 206,Cc1cc(C)cc(S(=O)(=O)n2c(CCCC(=O)O)cc3cc(Cl)ccc32)c1
14,157 to 159,Fc1cc(CC2(Cc3ccnc(F)c3)c3cccnc3-c3sccc32)ccn1
15,169 to 170,Cc1[nH]c(-c2ccncc2)c(C)c1C(=O)C(F)(F)F
16,84 to 86,CCC(C)C(C)CNc1cccc(-c2ccnc3c(C(=O)c4cccs4)cnn23)c1 (configuration not stated)
17,198 to 199,COc1cc(N)c(Cl)cc1C(=O)NC1CCN(C(=O)OC(C)(C)C)CC1F (configuration not stated)
18,236 to 248,CNc1nc(-c2ccc3c(c2)NC(=O)CO3)c(-c2ccccc2)s1
19,55 to 57,COc1ccc(C2(C=O)CCC(=O)CC2)cc1OC1CCCC1
20,> 350,O=c1ccc2cnc(Nc3ccccc3)nc2[nH]1
21,224,Cn1c(=O)c2c(ncn2CC(N)=NO)n(C)c1=O
22,145 to 146,CCN(CC)C(=O)c1cc(O)c(O)c([N+](=O)[O-])c1

row,Structure (SMILES),melting point [°C]
1,Cc1sc(C)c(CCl)c1CCl,68 to 70
2,CC1CC(C)N(CCCNC(=O)CN2CCCC2=O)C(C)(C)C1 (configuration not stated),85 to 87
3,Cc1cc(C2=NOC(c3cc(Cl)cc(Cl)c3)(C(F)(F)F)C2)ccc1S(=O)(=O)NCc1ccccn1 (configuration not stated),57 to 58
